Results on 2 compounds are retold here after patent US7527952B2 (Vertex Pharmaceuticals Incorporated, priority 1996, dated 2009).

For test [1] the following is noted: compared with MPA; cited from earlier work.
Test [2] deals with human type II IMPDH mutants of Ser 275, Ser 327 and Gln 368. The experiment in a line: MPA inhibition of IMPDH mutants of other active site residues. The format is biochemical. Conditions: mutations of Ser 275, Ser 327 and Gln 368.
Experimental: Residues which make direct contact with MPA also were modified.
Cultures (500 ml) were grown at 37° C. for 14 to 16 hours after IPTG induction, and typically yielded 2 grams of cell paste. Cells were resuspended in 50 mM Tris, pH 8.0, 150 mM KCl, 3 mM EDTA, 2 mM DTT buffer containing 10% urea, and then lysed by addition of lysozyme (1 mg/g cell paste) and sonication. IMPDH wild-type and mutant proteins were precipitated from crude lysates by 25% w/v ammonium sulfate. Up to 150 mgs of at least 65%-70% pure IMPDH was obtained by this single purification step. The partially purified IMPDH was resuspended in 50 mM Tris, pH 8.0, 100 mM KCl, 3 mM EDTA, 2 mM DTT, 10% glycerol buffer and used for kinetic analysis. Second order rate constants (k cat/Km, M^−1sec^−1) were calculated from IMP titration data at saturating (400 mM). NAD concentration obtained by monitoring the rate of NADH production at 340 nm at 37° C. […] Ki app. values for MPA were obtained from the rate vs. inhibitor data of IMPDH mutants at saturating IMP and NAD concentrations.
A further test concerns murine blastoma cells. Conditions: cells selected for resistance, carrying the Thr 333 to Ile mutation; cited from earlier work.

For the compound `COc1c(CC=C(C)CCC(=O)O)cc2c(c1C)COC2=O` [des-hydroxy-MPA], the “fold less potent than MPA in a cellular assay” value in test [1] is given as “at least 1,000 fold”. Take mycophenolic acid [MPA]: the “effect of mutation on drug inhibition” value in test [2] was “little effect”. For the same compound, in the test with murine blastoma cells, the “increased resistance to MPA” value is reported as 10,000 fold.
